Eight molecules from DBAASP can be followed below.

Structures are written as SMILES. Values after ≈ are worked out from the molar mass of the structure shown. Values joined by “and” are separate entries in the source; they are usually repeats but may differ in a detail not shown here. Identical values can stand only once.

Test systems include Micrococcus luteus; Bacillus megaterium; Aureobasidium pullulans; Escherichia coli SBS 363; Salmonella typhimurium; Staphylococcus aureus; Escherichia coli DC2; Escherichia coli K-12.
What all share (test): ≥ marks a high value that may be exact or a test limit, other limits are often not marked, values filed in µg/mL are converted to µM
In test [1] the test system is Corynebacterium glutamicum ATCC 13032.
Test [2] deals with Candida albicans ATCC 10231.
Test [3] relates to Staphylococcus aureus ATCC 9144.
The subject of test [4] is Escherichia coli ATCC 25922.
Test [5] relates to Bacillus subtilis ATCC 23857.
Test [6] relates to Pseudomonas aeruginosa ATCC 27853.
The test system of test [7] is Staphylococcus aureus ATCC 29213.
The subject of test [8] is Escherichia coli O157:H7 ATCC 43895.
In test [9] the test system is Staphylococcus aureus IAM 1011.
Test [10] relates to Bacillus subtilis IAM 1026.
The subject of test [11] is Photobacterium damselae subsp. piscicida Sp 9587.
For test [12], the system named is Shewanella putrefaciens IAM 1509.
Test [13] deals with Escherichia coli JCM 1649.
The subject of test [14] is Aeromonas salmonicida NCIMB 1102.
Test [15] has as its system Vibrio anguillarum NCIMB 829.
Test [16] relates to Vibrio parahaemolyticus Vp+1.
Test [17] deals with Staphylococcus aureus UAMS-1.

In general, MIC refers to the smallest concentration in the dilution series that meets the test's criterion for growth inhibition. Take `C[C@H](NC(=O)[C@H](CCCCN)NC(=O)[C@H](Cc1c[nH]c2ccccc12)NC(=O)CNC(=O)CNC(=O)[C@H](Cc1c[nH]c2ccccc12)NC(=O)[C@H](CCCCN)NC(=O)[C@H](CCCCN)NC(=O)CN)C(=O)N[C@@H](CCCCN)C(N)=O` [GKKWGGWKAK]: the MIC in test [1] is 27.3 µM (≈ 31.3 µg/mL); in test [2], 109 µM (≈ 125 µg/mL); in [3], at least 218 µM; against Micrococcus luteus, at least 218 µM; in test [4], above 218 µM; in test [5], at least 109 µM. The results for the MIC (in the test with Bacillus megaterium; in test [6]; in the test on Aureobasidium pullulans) were 3.41 µM (≈ 3.9 µg/mL), above 218 µM and at least 54.6 µM, respectively.

`C[C@H](NC(=O)[C@H](CCCCN)NC(=O)[C@H](Cc1c[nH]c2ccccc12)NC(=O)CNC(=O)CNC(=O)[C@@H]1CCCN1C(=O)[C@H](CCCCN)NC(=O)[C@H](CCCCN)NC(=O)CN)C(=O)N[C@@H](CCCCN)C(N)=O` [GKKPGGWKAK]: the MIC in test [1] was at least 237 µM; in [2] it was above 237 µM; in test [3], at least 237 µM; in the test on Micrococcus luteus it was at least 237 µM; in [4], above 237 µM; in test [5], at least 237 µM. Besides, the results for the MIC (in the test with Bacillus megaterium; in [6]; against Aureobasidium pullulans) were at least 237 µM, above 237 µM and at least 237 µM, respectively.

For the molecule `CC(C)C[C@H](NC(=O)CN)C(=O)N[C@@H](Cc1ccccc1)C(=O)N[C@@H](CCCCN)C(=O)NCC(=O)N[C@@H](CCCCN)C(=O)N[C@@H](CCCCN)C(=O)N[C@@H](CCCCN)C(=O)N[C@@H](CC(N)=O)C(=O)N[C@@H](CCCCN)C(=O)N[C@@H](CCCCN)C(=O)N[C@H](C(=O)N[C@@H](CCCCN)C(N)=O)[C@@H](C)O` [GLFKGKKKNKKTK], the minimal inhibitory concentration (MIC) was above 250 µM in [4], at least 250 µM against Escherichia coli SBS 363 and above 250 µM in test [7].

For `CC(C)C[C@H](NC(=O)[C@H](C)N)C(=O)N[C@@H](Cc1c[nH]c2ccccc12)C(=O)N[C@@H](CCCCN)C(=O)N[C@H](C(=O)N[C@@H](CC(C)C)C(=O)N[C@@H](CC(C)C)C(=O)N[C@@H](CCCCN)C(=O)N[C@@H](CCCCN)C(=O)N[C@H](C(=O)N[C@@H](CC(C)C)C(=O)N[C@@H](CCCCN)C(=O)N[C@@H](C)C(=O)N[C@@H](C)C(=O)N[C@@H](C)C(=O)N[C@@H](CCCCN)C(=O)N[C@@H](C)C(=O)N[C@@H](C)C(=O)N[C@@H](CC(C)C)C(=O)N[C@@H](CCCCN)C(=O)N[C@@H](C)C(=O)N[C@H](C(=O)N[C@@H](CC(C)C)C(=O)N[C@H](C(=O)NCC(=O)N[C@@H](C)C(=O)N[C@@H](CC(N)=O)C(=O)N[C@@H](C)C(N)=O)C(C)C)C(C)C)C(C)C)[C@@H](C)O` [ALWKTLLKKVLKAAAKAALKAVLVGANA], the MIC in test [8] was 8 µM (≈ 22.9 µg/mL).

Take `CC[C@H](C)[C@H](NC(=O)[C@H](CCC(N)=O)NC(=O)CNC(=O)[C@H](CC(C)C)NC(=O)[C@@H](NC(=O)[C@H](CCCCN)NC(=O)[C@H](CCCN=C(N)N)NC(=O)[C@H](Cc1c[nH]c2ccccc12)NC(=O)[C@@H](N)CC(N)=O)[C@@H](C)CC)C(=O)N[C@@H](C)C(=O)N[C@@H](CO)C(=O)N[C@H](C(=O)NCC(=O)N[C@@H](C)C(=O)NCC(=O)N[C@@H](CC(C)C)C(=O)N[C@@H](CC(C)C)C(=O)NCC(=O)N[C@@H](CO)C(=O)N[C@@H](CC(C)C)C(=O)N[C@@H](CC(C)C)C(=O)N[C@@H](C)C(=O)NCC(=O)N[C@@H](Cc1ccc(O)cc1)C(=O)N[C@@H](CCC(=O)O)C(=O)O)C(C)C` [NWRKILGQIASVGAGLLGSLLAGYE]: the MIC in test [9] turned out to be 19.3 µM (≈ 50 µg/mL); in [10], 19.3 µM (≈ 50 µg/mL); against Salmonella typhimurium, 19.3 µM (≈ 50 µg/mL); in test [11], 9.66 µM (≈ 25 µg/mL); in test [12], 4.83 µM (≈ 12.5 µg/mL); in test [13], 19.3 µM (≈ 50 µg/mL). In addition, the MIC in [14], in [15] and in [16] was 19.3 µM (≈ 50 µg/mL) throughout.

For the molecule `CC(C)[C@H](NC(=O)[C@H](CCCCN)NC(=O)[C@H](C)NC(=O)[C@@H](NC(=O)[C@@H](NC(=O)[C@H](CCCN=C(N)N)NC(=O)[C@H](CCCN=C(N)N)NC(=O)[C@H](Cc1c[nH]c2ccccc12)NC(=O)[C@@H](N)Cc1c[nH]c2ccccc12)[C@@H](C)O)C(C)C)C(=O)N[C@@H](CCCN=C(N)N)C(=O)N[C@@H](CC(N)=O)C(=O)N[C@@H](C)C(=O)NCC(=O)N[C@@H](CCCN=C(N)N)C(=O)N[C@@H](CCCCN)C(N)=O` [WWRRTVAKVRNAGRK], the MIC in [1] was 0.4 µM (≈ 0.753 µg/mL); in test [2] it was 100 µM (≈ 188 µg/mL); in test [3], 12.5 µM (≈ 23.5 µg/mL); in test [4], 6.3 µM (≈ 11.9 µg/mL); in [6], 25 µM (≈ 47.1 µg/mL); in the test on Aureobasidium pullulans, at least 100 µM.

For the molecule `CC[C@H](C)[C@H](NC(=O)[C@H](CCCCN)NC(=O)[C@H](CCC(=O)O)NC(=O)[C@H](CCCCN)NC(=O)[C@@H](NC(=O)[C@H](CCCCN)NC(=O)[C@H](CCCN=C(N)N)NC(=O)[C@H](Cc1ccccc1)NC(=O)[C@H](Cc1ccccc1)NC(=O)[C@H](CC(=O)O)NC(=O)CNC(=O)[C@H](CC(C)C)NC(=O)[C@@H](N)CC(C)C)C(C)C)C(=O)NCC(=O)N[C@@H](CCCCN)C(=O)N[C@@H](CCC(=O)O)C(=O)N[C@@H](Cc1ccccc1)C(=O)N[C@@H](CCCCN)C(=O)N[C@@H](CCCN=C(N)N)C(=O)N[C@H](C(=O)N[C@H](C(=O)N[C@@H](CCC(N)=O)C(=O)N[C@@H](CCCN=C(N)N)C(=O)O)C(C)C)[C@@H](C)CC` [LLGDFFRKVKEKIGKEFKRIVQR], the MIC was > 24 µM and 12 µM against Staphylococcus aureus; 2 µM (≈ 5.67 µg/mL) against Escherichia coli DC2; at least 40 µM against Escherichia coli K-12; at least 160 µM in [17].

On to `CC(C)C[C@H](NC(=O)[C@H](Cc1cnc[nH]1)NC(=O)CNC(=O)[C@H](C)NC(=O)[C@H](C)NC(=O)[C@@H](NC(=O)[C@H](Cc1ccccc1)NC(=O)[C@H](C)NC(=O)[C@H](CC(C)C)NC(=O)[C@H](CCCCN)NC(=O)[C@H](CCCCN)NC(=O)[C@H](CC(C)C)NC(=O)[C@H](CC(C)C)NC(=O)[C@H](CCC(=O)O)NC(=O)[C@H](CCCN=C(N)N)NC(=O)[C@H](Cc1c[nH]c2ccccc12)NC(=O)[C@@H](N)Cc1c[nH]c2ccccc12)[C@@H](C)O)C(=O)NCC(=O)N[C@@H](CO)C(=O)N[C@H](C(=O)N[C@@H](CC(C)C)C(=O)N[C@@H](C)C(=O)N[C@@H](C)C(=O)N[C@@H](CCCCN)C(=O)N[C@@H](CCC(N)=O)C(=O)N[C@@H](CO)C(=O)NCC(=O)N[C@@H](Cc1c[nH]c2ccccc12)C(=O)O)C(C)C` [WWRELLKKLAFTAAGHLGSVLAAKQSGW], for which the minimal inhibitory concentration (MIC) in test [9] worked out at 4 µM (≈ 12.5 µg/mL); in [10] it was 8 µM (≈ 25 µg/mL); in the test on Salmonella typhimurium, 16 µM (≈ 50 µg/mL); in test [11], 8 µM (≈ 25 µg/mL); in test [12], 2 µM (≈ 6.25 µg/mL); in test [13], 16 µM (≈ 50 µg/mL). For the same molecule, the minimal inhibitory concentration (MIC) in test [14] came out at 8 µM (≈ 25 µg/mL); in test [15], 16 µM (≈ 50 µg/mL); in [16] it was 16 µM (≈ 50 µg/mL).
